# According to patent publication US7018836B1, “P-TEFb compositions, methods and screening assays” (priority 1996, dated 2006):
# What was measured:
# [1] = tested on: transcription from HIV-1 LTR; test: In vitro Tat transactivation in HNE with TAR and DTAR templates (FIG. 8); format: biochemical, human
# Experimental: The transcription template (Nco I-digested pLTR-4/CAT vector containing the HIV-1 LTR from −153 to +80) was used in a pulse-chase transcription experiment. Reactions (12 μl total; 20 mM HEPES, pH 7.6, 7 mM MgCl2, 20 μg/ml DNA template, 3 μl HNE, 64 mM KCl, with 50 μM DRB or 0.3 μl Drosophila P-TEFb (Marshall et al., 1996) as indicated) were pre-incubated for 20 minutes at 30° C., pulsed for 2 minutes by adding ATP, GTP, UTP to 600 μM each and 5 μCi [α-^32P]CTP (˜0.1 mM), and chased for 5 minutes by adding CTP to 1.2 mM. Reactions were stopped, phenol extracted and analyzed on a 6% polyacrylamide gel as described (Marshall and Price, 1995). pLTR-TAR-Luc and pLTR-DTAR-Luc plasmids were digested with Eco RI to generate TAR and DTAR template that were used in the studies. The TAR template contains HIV-1 LTR from −475 to +76, while the DTAR template contains HIV-1 LTR from −475 to +19. Transcription with TAR and DTAR templates generates runoffs of 694 and 646 nucleotides, respectively. The transcription reaction mix contained 20 mM HEPES (pH7.6), 7 mM MgCl2, 60 mM KCl, 0.5 μl HNE (or depHNE as indicated), 20 μg/ml TAR template (or DTAR template as indicated), indicated amount of HIV-1 Tat (86 residue HIV-1 Tat followed by a streptavidin binding tag at its carboxyl terminus) and DRB. […] The transcripts were then analyzed on a 6% polyacrylamide gel as described (Marshall and Price, 1995).
# [2] = tested on: mammalian cells in culture; details: DRB added to mammalian cells in culture; cited from earlier work
# [3] = tested on: CTD kinase found in the preinitiation complex; test: Phosphorylation of RNA polymerase II in isolated preinitiation complexes (western blot); format: biochemical, Drosophila; details: 20 μM DRB
# Experimental: Preinitiation complexes were formed on an immobilized actin template digested with HpaII (780 nt runoff) as described in Marshall and Price (Marshall and Price, 1992). The preinitiation complexes were isolated, washed once with 55 mM HKB (20 mM HEPES, 55 mM KCl and 200 μg/ml BSA) and resuspended into 55 mM HKB. Transcription was initiated by the addition of a pulse solution, which contained 5 μCi of [α-^32P]CTP and brought the reaction mixture to 600 μM in ATP, GTP and UTP and 2 mM MnCl2. MnCl2 increased the rate of initiation of preinitiation complexes, thereby, increasing the number of polymerases in early elongation complexes after a short pulse. After 15 seconds the reaction was stopped by the addition of EDTA to 10 mM.
# Preinitiation complexes were formed on an immobilized actin template as described above in Methods, Section 3. […] Incubation of the preinitiation complexes with ATP caused a significant shift of the polymerase to the IIo form. The antibodies used to detect the large subunit of RNA polymerase II reacted more strongly with the […] of the large subunit than either the phosphorylated IIo form or the truncated IIb form. This phosphorylation was unaffected by the presence of 20 μM DRB.
# [4] = tested on: runoff transcription from HIV-1 LTR in HNE (human P-TEFb); test: Transcription of HIV LTR template in HeLa nuclear extract (HNE), 633-nt runoff (FIG. 7A); format: biochemical; details: for IC50: HNE, HIV LTR template, read-out: 50% inhibition point, transcription assay
# Experimental: The transcription template (Nco I-digested pLTR-4/CAT vector containing the HIV-1 LTR from −153 to +80) was used in a pulse-chase transcription experiment. Reactions (12 μl total; 20 mM HEPES, pH 7.6, 7 mM MgCl2, 20 μg/ml DNA template, 3 μl HNE, 64 mM KCl, with 50 μM DRB or 0.3 μl Drosophila P-TEFb (Marshall et al., 1996) as indicated) were pre-incubated for 20 minutes at 30° C., pulsed for 2 minutes by adding ATP, GTP, UTP to 600 μM each and 5 μCi [α-^32P]CTP (˜0.1 mM), and chased for 5 minutes by adding CTP to 1.2 mM. Reactions were stopped, phenol extracted and analyzed on a 6% polyacrylamide gel as described (Marshall and Price, 1995). pLTR-TAR-Luc and pLTR-DTAR-Luc plasmids were digested with Eco RI to generate TAR and DTAR template that were used in the studies. The TAR template contains HIV-1 LTR from −475 to +76, while the DTAR template contains HIV-1 LTR from −475 to +19. Transcription with TAR and DTAR templates generates runoffs of 694 and 646 nucleotides, respectively. The transcription reaction mix contained 20 mM HEPES (pH7.6), 7 mM MgCl2, 60 mM KCl, 0.5 μl HNE (or depHNE as indicated), 20 μg/ml TAR template (or DTAR template as indicated), indicated amount of HIV-1 Tat (86 residue HIV-1 Tat followed by a streptavidin binding tag at its carboxyl terminus) and DRB. The reaction mix was pre-incubated for 15 minutes at 30° C. and the transcription was started by adding nucleotides to final concentrations of 50 μM ATP, 50 μM GTP, 50 μM UTP, 10 μM CTP, and 5 μCi [α-^32P]CTP (˜0.1 mM), and continuously labeled for 20 minutes, or by adding nucleotides to final concentrations of 50 μM ATP, 50 μM GTP, 50 μM UTP, and 5 μCi [α-^32P]CTP (˜0.1 mM), and pulsed for 2 minutes. The reactions were stopped and reaction mix were phenol-extracted. The transcripts were then analyzed on a 6% polyacrylamide gel as described (Marshall and Price, 1995).
# P-TEFb = test: Phosphorylation by P-TEFb of RNA polymerase II in high salt washed early elongation complexes (western blot); format: biochemical, Drosophila; details: 20 μM DRB
# [5] = tested on: productive elongation (runoff transcripts) by RNA polymerase II in KcN; format: biochemical, Drosophila; details: for IC50: read-out: 50% inhibition point of runoff transcription
# Drosophila TFIIH = test: CTD kinase assay with Drosophila TFIIH; format: biochemical; details: 20 μM DRB
# Experimental: 0.4 μl of purified RNA polymerase II and various protein samples were mixed in 18 μl of 55 mM HMK. The reaction was then initiated by the addition of 2 μl of a solution containing 2 μCi of [γ-^32P]ATP (ICN) and unlabeled ATP at 10 μM, or only unlabeled ATP at concentrations from 1 to 100 μM or other NTPs or dNTPs at concentrations of 1 to 100 μM. Reactions were incubated for the indicated times at 23° C. and then terminated with SDS loading buffer. Samples were analyzed on a 6–15% SDS polyacrylamide gel which was silver stained, dried and subjected to autoradiography if the assay contained label.
# To determine whether P-TEFb was related to the protein kinase associated with TFIIH (Roy et al., 1994; Feaver et al., 1994; Cismowski et al., 1995; Serizawa et al., 1995; Shiekhattar et al., 1995), P-TEFb was compared with Drosophila TFIIH purified from Drosophila embryos by the method of Austin and Biggin (1996).
smiles,measurement,setting,value
"OC[C@H]1O[C@@H](n2cnc3cc(Cl)c(Cl)cc32)[C@H](O)[C@@H]1O [DRB, 5,6-dichloro-1-β-D-ribofuranosylbenzimidazole]",effect of DRB on Tat-stimulated runoff,[1]; 50 μM DRB,mostly inhibited
same,sensitivity to DRB of the effect of Tat on initiation,[1]; pulse-only protocol,not sensitive
same,inhibition in the production of mature mRNA,[2],95%
same,phosphorylation of RNA polymerase II to IIo in preinitiation complexes incubated with ATP,[3],unaffected
same,IC50,[4],1 µM
same,ability of P-TEFb to phosphorylate RNA polymerase II in an early elongation complex,P-TEFb,inhibited
same,fraction of runoff generated that was DRB-sensitive,[5],greater than 95%
same,IC50,[5],0.7 µM
same,sensitivity of CTD kinase activity of TFIIH,Drosophila TFIIH,unaffected
CNCCNS(=O)(=O)c1cccc2cnccc12 [H-8],"ratio of 50% inhibition points (H-8/DRB), transcription assay",[4],23
same,IC50,[4],23 µM
same,effect on initiation and abortive transcription,[5]; even at concentrations that severely inhibited runoff,unaffected
same,IC50,[5],7 µM
